From patent US20170275270A1, “BENZYL SUBSTITUTED INDAZOLES” (Bayer Pharma Aktiengesellschaft, priority 2014, published 2017)

target: T1, catalytic domain of human Bub1 (amino acids 704-1085) (Homo sapiens, UniProt O43683); experiment: Bub1 kinase assay (TR-FRET); format: biochemical; details: 10 μM ATP, read-out: Biological Assay 1: Bub1 kinase assay median IC50
T1 construct: catalytic domain of human Bub1 (amino acids 704-1085); His6 (N); made in house; host or cells: Hi5 insect cells
Method: To this end, 100-fold concentrated compound solutions (in DMSO) were previously prepared by serial dilution (1:3.4) of 2 mM stocks in a clear low volume 384-well source microtiter plate (Greiner Bio-One, Frickenhausen, Germany), from which 50 nL of compounds were transferred into a black low volume test microtiter plate from the same supplier. […] The resulting mixture (5 μL final volume) was incubated at 22° C. during 60 min., and the reaction was stopped by the addition of 5 μL of an aqueous EDTA-solution (50 mM EDTA, in 100 mM HEPES pH 7.5 and 0.2% (w/v) bovine serum albumin) which also contained the TR-FRET detection reagents (0.2 μM streptavidin-XL665 [Cisbio Bioassays, Codolet, France] and 1 nM anti-phosho-Serine antibody [Merck Millipore, cat. #35-001] and 0.4 nM LANCE EU-W1024 labeled anti-mouse IgG antibody [Perkin-Elmer, product no. AD0077, alternatively a Terbium-cryptate-labeled anti-mouse IgG antibody from Cisbio Bioassays can be used]). The stopped reaction mixture was further incubated 1 h at 22° C. in order to allow the formation of complexes between peptides and detection reagents. Subsequently, the amount of product was evaluated by measurement of the resonance energy transfer from the Eu-chelate-antibody complex recognizing the Phosphoserine residue to the streptavidin-XL665 bound to the biotin moiety of the peptide. […] IC50 values were calculated by fitting the normalized inhibition data to a 4-parameter logistic equation (Minimum, Maximum, IC50, Hill; Y=Max+(Min−Max)/(1+(X/IC50) Hill)).

T1 sequence (O43683 704-1085): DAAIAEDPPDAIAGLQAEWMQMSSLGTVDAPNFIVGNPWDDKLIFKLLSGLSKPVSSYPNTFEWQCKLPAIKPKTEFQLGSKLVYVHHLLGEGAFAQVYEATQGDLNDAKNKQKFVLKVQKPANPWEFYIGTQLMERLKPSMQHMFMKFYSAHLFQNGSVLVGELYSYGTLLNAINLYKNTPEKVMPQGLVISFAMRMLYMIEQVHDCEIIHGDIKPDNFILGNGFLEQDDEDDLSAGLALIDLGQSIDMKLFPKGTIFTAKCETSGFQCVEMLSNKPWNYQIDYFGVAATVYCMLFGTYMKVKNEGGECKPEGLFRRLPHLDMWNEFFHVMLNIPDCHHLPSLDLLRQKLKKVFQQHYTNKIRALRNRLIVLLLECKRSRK

IC50 [nM]	Structure (SMILES)
8.7	COCCOc1cc(F)c(Cn2nc(-c3ncc(C)c(Nc4ccncc4OC)n3)c3ccccc32)c(F)c1 [Example 2-2-47, 2-{1-[2,6-difluoro-4-(2-methoxyethoxy)benzyl]-1H-indazol-3-yl}-N-(3-methoxypyridin-4-yl)-5-methylpyrimidin-4-amine]
3200	Cc1cc(Nc2cc(C(C)C)nc(-c3nn(Cc4c(F)cc(OCCO)cc4F)c4ccccc34)n2)c(C)cn1 [Example 2-6-30, 2-{4-[(3-{4-[(2,5-dimethylpyridin-4-yl)amino]-6-isopropylpyrimidin-2-yl}-1H-indazol-1-yl)methyl]-3,5-difluorophenoxy} ethanol]

same assay, conditions: Biological Assay 1: Bub1 kinase assay median IC50, 10 μM ATP

Structure (SMILES)	IC50 [nM]
COCCOc1cc(F)c(Cn2nc(-c3ncc(C4CC4)c(Nc4ccncc4OC)n3)c3ccccc32)c(F)c1 [Example 2-2-48, 5-cyclopropyl-2-{1-[2,6-difluoro-4-(2-methoxyethoxy)benzyl]-1H-indazol-3-yl}-N-(3-methoxypyridin-4-yl)pyrimidin-4-amine]	3.7
CS(=O)(=O)Cc1cnc(-c2nn(Cc3c(F)cc(OCCO)cc3F)c3ccccc23)nc1N(CCO)c1ccncc1 [Example 2-4-4, 2-[(2-{1-[2,6-difluoro-4-(2-hydroxyethoxy)benzyl]-1H-indazol-3-yl}-5-[(methylsulfonyl)methyl]pyrimidin-4-yl)(pyridin-4-yl)amino]ethanol]	480
Nc1cc(Nc2nc(-c3nn(Cc4c(F)cc(OCCO)cc4F)c4ccccc34)nc3c2CCC3)ccn1 [Example 2-4-7, 2-{4-[(3-{4-[(2-aminopyridin-4-yl)amino]-6,7-dihydro-5H-cyclopenta[d]pyrimidin-2-yl}-1H-indazol-1-yl)methyl]-3,5-difluorophenoxy}ethanol]	9.7
Cc1cnccc1Nc1nc(-c2nn(Cc3c(F)cc(O)cc3F)c3ccccc23)nc2c1CCC2 [Example 2-6-5, 3,5-difluoro-4-[(3-{4-[(3-methylpyridin-4-yl)amino]-6,7-dihydro-5H-cyclopenta[d]pyrimidin-2-yl}-1H-indazol-1-yl)methyl]phenol]	7.7
CC(=O)Nc1cc(Nc2nc(-c3nn(Cc4c(F)cc(O)cc4F)c4ccccc34)nc3c2CCC3)ccn1 [Example 2-6-7, N-[4-({2-[1-(2,6-difluoro-4-hydroxybenzyl)-1H-indazol-3-yl]-6,7-dihydro-5H-cyclopenta[d]pyrimidin-4-yl}amino)pyridin-2-yl]acetamide]	9.3
Cc1cc(Nc2nc(-c3nn(Cc4c(F)cc(O)cc4F)c4ccccc34)nc3c2CCC3)ccn1 [Example 2-6-8, 3,5-difluoro-4-[(3-{4-[(2-methylpyridin-4-yl)amino]-6,7-dihydro-5H-cyclopenta[d]pyrimidin-2-yl}-1H-indazol-1-yl)methyl]phenol]	46
Oc1cc(F)c(Cn2nc(-c3nc4c(c(Nc5ccncn5)n3)CCC4)c3ccccc32)c(F)c1 [Example 2-6-11, 3,5-difluoro-4-({3-[4-(pyrimidin-4-ylamino)-6,7-dihydro-5H-cyclopenta[d]pyrimidin-2-yl]-1H-indazol-1-yl}methyl)phenol]	14
COc1cnccc1Nc1nc(-c2nn(Cc3c(F)cc(OCCO)cc3F)c3ccccc23)nc2c1CCC(C)(C)C2 [Example 2-6-26, 2-{3,5-difluoro-4-[(3-{4-[(3-methoxypyridin-4-yl)amino]-7,7-dimethyl-5,6,7,8-tetrahydroquin-azolin-2-yl}-1H-indazol-1-yl)methyl]phenoxy}ethanol]	42
Cc1nccc(Nc2cc(C(C)C)nc(-c3nn(Cc4c(F)cc(OCCO)cc4F)c4ccccc34)n2)n1 [Example 2-6-28, 2-{3,5-difluoro-4-[(3-{4-isopropyl-6-[(2-methylpyrimidin-4-yl)amino]pyrimidin-2-yl}-1H-indazol-1-yl)methyl]phenoxy}ethanol]	510
Cc1nccc(Nc2nc(-c3nn(Cc4c(F)cc(OCCO)cc4F)c4ccccc34)nc(C)c2F)n1 [Example 2-6-32, 2-{3,5-difluoro-4-[(3-{5-fluoro-4-methyl-6-[(2-methylpyrimidin-4-yl)amino]pyrimidin-2-yl}-1H-indazol-1-yl)methyl]phenoxy}ethanol]	210
OCCOc1cc(F)c(Cn2nc(-c3nc4c(c(Nc5ccncn5)n3)CN(CC(F)(F)F)C4)c3ccccc32)c(F)c1 [Example 2-6-40, 2-[3,5-difluoro-4-({3-[4-(pyrimidin-4-ylamino)-6-(2,2,2-trifluoroethyl)-6,7-dihydro-5H-pyrrolo[3,4-d]pyrimidin-2-yl]-1H-indazol-1-yl}methyl)phenoxy]ethanol]	9.3
COc1cnccc1Nc1nc(-c2nn(Cc3c(F)cc(OCCO)cc3F)c3ccccc23)nc2c1CN(CC(F)(F)F)C2 [Example 2-6-41, 2-{3,5-difluoro-4-[(3-{4-[(3-methoxypyridin-4-yl)amino]-6-(2,2,2-trifluoroethyl)-6,7-dihydro-5H-pyrrolo[3,4-d]pyrimidin-2-yl}-1H-indazol-1-yl)methyl]phenoxy}ethanol]	14

Results, then the compound that gave them:

IC50 [nM]	Structure (SMILES)
11	CCOc1cc(F)c(Cn2nc(-c3ncc(CCSC)c(Nc4ccncc4)n3)c3ccccc32)c(F)c1 [Example 2-2-1, 2-[1-(4-ethoxy-2,6-difluorobenzyl)-1H-indazol-3-yl]-5-[2-(methylsulfanyl)ethyl]-N-(pyridin-4-yl)pyrimidin-4-amine]
12	CCOc1cc(F)c(Cn2nc(-c3ncc(CCCSC)c(Nc4ccncc4)n3)c3ccccc32)c(F)c1 [Example 2-2-2, 2-[1-(4-ethoxy-2,6-difluorobenzyl)-1H-indazol-3-yl]-5-[3-(methylsulfanyl)propyl]-N-(pyridin-4-yl)pyrimidin-4-amine]
13	CCOc1cc(F)c(Cn2nc(-c3ncc(C)c(Nc4ccncc4)n3)c3ccccc32)c(F)c1 [Example 2-2-4, 2-[1-(4-ethoxy-2,6-difluorobenzyl)-1H-indazol-3-yl]-5-methyl-N-(pyridin-4-yl)pyrimidin-4-amine]
10	CCOc1cc(F)c(Cn2nc(-c3ncc(CNC=O)c(Nc4ccncc4)n3)c3ccccc32)c(F)c1 [Example 2-2-8, N-({2-[1-(4-ethoxy-2,6-difluorobenzyl)-1H-indazol-3-yl]-4-(pyridin-4-ylamino)pyrimidin-5-yl}methyl)formamide]
12	CCOc1cc(F)c(Cn2nc(-c3ncc(CCOC)c(Nc4ccncc4)n3)c3ccccc32)c(F)c1 [Example 2-2-9, 2-[1-(4-ethoxy-2,6-difluorobenzyl)-1H-indazol-3-yl]-5-(2-methoxyethyl)-N-(pyridin-4-yl)pyrimidin-4-amine]
20	CCOc1cc(F)c(Cn2nc(-c3ncc(CCCOC)c(Nc4ccncc4C(=O)O)n3)c3ccccc32)c(F)c1 [Example 2-2-10, 4-({2-[1-(4-ethoxy-2,6-difluorobenzyl)-1H-indazol-3-yl]-5-(3-methoxypropyl)pyrimidin-4-yl}amino)nicotinic acid]
17	CCOc1cc(F)c(Cn2nc(-c3ncc(CCCOC)c(Nc4ccncc4)n3)c3ccccc32)c(F)c1 [Example 2-2-11, 2-[1-(4-ethoxy-2,6-difluorobenzyl)-1H-indazol-3-yl]-5-(3-methoxypropyl)-N-(pyridin-4-yl)pyrimidin-4-amine]
15	CCOc1cc(F)c(Cn2nc(-c3ncc(CCCN4CCOCC4)c(Nc4ccncc4)n3)c3ccccc32)c(F)c1 [Example 2-2-13, 2-[1-(4-ethoxy-2,6-difluorobenzyl)-1H-indazol-3-yl]-5-[3-(morpholin-4-yl)propyl]-N-(pyridin-4-yl)pyrimidin-4-amine]
14	CCOc1cc(F)c(Cn2nc(-c3ncc(CC4OCCO4)c(Nc4ccncc4)n3)c3ccccc32)c(F)c1 [Example 2-2-15, 5-(1,3-dioxolan-2-ylmethyl)-2-[1-(4-ethoxy-2,6-difluorobenzyl)-1H-indazol-3-yl]-N-(pyridin-4-yl)pyrimidin-4-amine]
58	CCOc1cc(F)c(Cn2nc(-c3ncc(CCCCN4CC(F)(F)C4)c(Nc4ccncc4)n3)c3ccccc32)c(F)c1 [Example 2-2-20, 5-[4-(3,3-difluoroazetidin-1-yl)butyl]-2-[1-(4-ethoxy-2,6-difluorobenzyl)-1H-indazol-3-yl]-N-(pyridin-4-yl)pyrimidin-4-amine]
8.9	CCOc1cc(F)c(Cn2nc(-c3ncc(CS(C)(=O)=O)c(Nc4ccncc4)n3)c3ccccc32)c(F)c1 [Example 2-3-3, 2-[1-(4-ethoxy-2,6-difluorobenzyl)-1H-indazol-3-yl]-5-[(methylsulfonyl)methyl]-N-(pyridin-4-yl)pyrimidin-4-amine]
11	CCOc1cc(F)c(Cn2nc(-c3nc(Nc4ccnc(NC(C)=O)c4)cc([C@H](C)O)n3)c3ccccc32)c(F)c1 [Example 2-4-9, N-[4-({2-[1-(4-ethoxy-2,6-difluorobenzyl)-1H-indazol-3-yl]-6-[(1S)-1-hydroxyethyl]pyrimidin-4-yl}amino)pyridin-2-yl]acetamide]
